Data reported in US20210269434A1, “TRICYCLIC COMPOUNDS AS INHIBITORS OF KRAS” (Incyte Corporation, priority 2020, published 2021).

target: KRAS G12D (Homo sapiens, UniProt P01116, G12D); experiment: GDP-GTP exchange assay (KRAS_G12D exchange); type: biochemical; settings: bodipy loaded KRAS G12D 2.5 nM; 4 hours incubation after GppNHp-SOS1; read-out: G12D_exchange
Method: Example A. GDP-GTP Exchange Assay
The inhibitor potency of the exemplified compounds was determined in a fluorescence based guanine nucleotide exchange assay, which measures the exchange of bodipy-GDP (fluorescently labeled GDP) for GppNHp (Non-hydrolyzable GTP analog) to generate the active state of KRAS in the presence of SOS1 (guanine nucleotide exchange factor). Inhibitors were serially diluted in DMSO and a volume of 0.1 μL was transferred to the wells of a black low volume 384-well plate. 5 μL/well volume of bodipy-loaded KRAS G12C diluted to 5 nM in assay buffer (25 mM Hepes pH 7.5, 50 mM NaCl, 10 mM MgCl2 and 0.01% Brij-35) was added to the plate and pre-incubated with inhibitor for 2 hours at ambient temperature. Appropriate controls (enzyme with no inhibitor or with a G12C inhibitor (AMG-510)) were included on the plate. The exchange was initiated by the addition of a 5 μL/well volume containing 1 mM GppNHp and 300 nM SOS1 in assay buffer. The 10 μL/well reaction concentration of the bodipy-loaded KRAS G12C, GppNHp, and SOS1 were 2.5 nM, 500 uM, and 150 nM, respectively. The reaction plates were incubated at ambient temperature for 2 hours, a time estimated for complete GDP-GTP exchange in the absence of inhibitor. For the KRAS G12D and G12V mutants, similar guanine nucleotide exchange assays were used with 2.5 nM as final concentration for the bodipy loaded KRAS proteins and with 4 hours and 3 hours incubation after adding GppNHp-SOS1 mixture for G12D and G12V respectively. A cyclic peptide described to selectively bind G12D mutant (Sakamoto et al., BBRC 484.3 (2017), 605-611) or internal compounds with confirmed binding were used as positive controls in the assay plates. Fluorescence intensities were measured on a PheraStar plate reader instrument (BMG Labtech) with excitation at 485 nm and emission at 520 nm.
Either GraphPad prism or XLfit was used to analyze the data. The IC50 values were derived by fitting the data to a four parameter logistic equation producing a sigmoidal dose-response curve with a variable Hill coefficient. Prism equation: Y=Bottom+(Top−Bottom)/(1+10^((Log lC50−X)*Hill slope)); XLfit equation: Y=(A+((B−A)/(1+((X/C)^D)))) where X is the logarithm of inhibitor concentration and Y is the response.

Sequence of KRAS G12D (P01116 1-188 isoform P01116-2 G12D): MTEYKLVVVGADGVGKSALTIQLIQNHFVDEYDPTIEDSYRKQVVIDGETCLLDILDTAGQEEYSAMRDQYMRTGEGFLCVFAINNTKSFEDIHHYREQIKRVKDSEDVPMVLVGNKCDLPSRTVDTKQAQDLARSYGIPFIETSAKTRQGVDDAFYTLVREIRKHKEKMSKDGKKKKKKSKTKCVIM

IC50 [nM] | Compound
5000 to 10000 | CN(C)C1CN(c2nc3c(F)c(-c4cc(O)cc5ccccc45)c(-c4cn[nH]c4)cc3c3c2ncn3[C@H]2[C@H]3CN[C@@H]2C3)C1 (single isomer, unassigned) [Example 25a, 4-(1-((endo)-2-azabicyclo[2.1.1]hexan-5-yl)-4-(3-(dimethylamino)azetidin-1-yl)-6-fluoro-8-(1H-pyrazol-4-yl)-1H-imidazo[4,5-c]quinolin-7-yl)naphthalen-2-ol]
100 to 1000 | Cc1cc2c(nc(N3CC(N(C)C)C3)c3ncn([C@H]4[C@H]5CN[C@@H]4C5)c32)c(F)c1-c1cc(O)cc2ccccc12 (single isomer, unassigned) [Example 34a, 4-(1-((endo)-2-azabicyclo[2.1.1]hexan-5-yl)-4-(3-(dimethyl-amino)azetidin-1-yl)-6-fluoro-8-methyl-1H-imidazo[4,5-c]quinolin-7-yl)naphthalen-2-ol]

Second part, the compound before the results:

Compound | IC50 [nM]
CN(C)C(=O)CCc1nc2c(N3CC(N(C)C)C3)nc3c(Cc4ccccc4)c(-c4cc(O)cc5ccccc45)c(CCC#N)cc3c2n1[C@@H]1[C@@H]2CN[C@H]1C2 (racemic) [Example 294, 3-(6-benzyl-1-((endo)-2-azabicyclo[2.1.1]hexan-5-yl)-8-(2-cyanoethyl)-4-(3-(dimethylamino)azetidin-1-yl)-7-(3-hydroxynaphthalen-1-yl)-1H-imidazo[4,5-c]quinolin-2-yl)-N,N-dimethylpropanamide] | 100 to 1000
CN(C)C1CN(c2nc3c(F)c(-c4cc(O)cc5ccccc45)c(C#N)cc3c3c2ncn3[C@H]2[C@H]3CN[C@@H]2C3)C1 (relative stereo) [Example 50, 1-((endo)-2-azabicyclo[2.1.1]hexan-5-yl)-4-(3-(dimethylamino)azetidin-1-yl)-6-fluoro-7-(3-hydroxynaphthalen-1-yl)-1H-imidazo[4,5-c]quinoline-8-carbonitrile] | 100 to 1000
CN(C)C1CN(c2nc3c(F)c(-c4cc(O)cc5ccccc45)c(Cl)cc3c3c2nc(CO)n3[C@H]2[C@H]3CN[C@@H]2C3)C1 (relative stereo) [Example 75, 4-(1-((endo)-2-azabicyclo[2.1.1]hexan-5-yl)-8-chloro-4-(3-(dimethylamino)-azetidin-1-yl)-6-fluoro-2-(hydroxymethyl)-1H-imidazo[4,5-c]quinolin-7-yl)naphthalen-2-ol] | 100 to 1000
CN(C)C1CN(c2nc3c(F)c(-c4cc(O)cc5ccccc45)c(Cl)cc3c3c2nc(CC2CCNCC2)n3[C@H]2[C@H]3CN[C@@H]2C3)C1 (relative stereo) [Example 77, 4-(1-((endo)-2-azabicyclo[2.1.1]hexan-5-yl)-8-chloro-4-(3-(dimethylamino)azetidin-1-yl)-6-fluoro-2-(piperidin-4-ylmethyl)-1H-imidazo[4,5-c]quinolin-7-yl)naphthalen-2-ol] | 1000 to 5000
CN(C)C1CN(c2nc3c(F)c(-c4cc(O)cc5ccccc45)c(Cl)cc3c3c2nc(C2CCS(=O)(=O)CC2)n3[C@H]2[C@H]3CN[C@@H]2C3)C1 (relative stereo) [Example 79, 4-(1-((endo)-2-azabicyclo[2.1.1]hexan-5-yl)-8-chloro-4-(3-(dimethylamino)azetidin-1-yl)-6-fluoro-7-(3-hydroxynaphthalen-1-yl)-1H-imidazo[4,5-c]quinolin-2-yl)tetrahydro-2H-thiopyran 1,1-dioxide] | 100 to 1000
CN(C)C1CN(c2nc3c(F)c(-c4cc(O)cc5ccc(Cl)cc45)c(Cl)cc3c3c2ncn3[C@H]2[C@H]3CN[C@@H]2C3)C1 (single isomer, unassigned) [Example 23a, 4-(1-((endo)-2-azabicyclo[2.1.1]hexan-5-yl)-8-chloro-4-(3-(dimethylamino)azetidin-1-yl)-6-fluoro-1H-imidazo[4,5-c]quinolin-7-yl)-6-chloronaphthalen-2-ol] | 100 to 1000
